Measurements taken from ChEMBL document CHEMBL1146680, “A highly toxic morphine-3-glucuronide derivative” (Bioorg Med Chem Lett, 2004).
The source made the active and inactive calls. The rule behind the calls is not given here.

Key:
Rattus norvegicus [1] = assay: Opioid agonist activity by measuring the analgesia produced after 10 mg/kg administration in rats; none; assay type: functional, organism-based; set-up: dose 10 mg/kg
Rattus norvegicus [2] = assay: Opioid agonist activity by measuring the analgesia produced after 5 mg/kg administration in rats; none; assay type: functional, organism-based; set-up: dose 5 mg/kg
Rattus norvegicus [3] = assay: Opioid agonist activity by measuring the analgesia produced after 1 mg/kg administration in rats; none; assay type: functional, organism-based; set-up: dose 1 mg/kg
Rattus norvegicus [4] = assay: Effect on rats after 30 mins of 2.5 mg/kg administration; death observed; assay type: ADME, organism-based; set-up: dose 2.5 mg/kg; conditions: in vivo, 0.5 h
Rattus norvegicus [5] = assay: Reversion of toxic effect (1 ng/kg) by naloxone given 20 mins (after the compound) at a dose of 1 mg/kg; no improvement in survival observed; assay type: ADME, organism-based; set-up: dose 1 mg/kg; conditions: in vivo
Rattus norvegicus [6] = assay: Reversion of toxic effect (1 ng/kg) by naloxone given 30 mins (after the compound) at a dose of 5 mg/kg; no improvement in survival observed; assay type: ADME, organism-based; set-up: dose 5 mg/kg; conditions: in vivo, 0.5 h
Rattus norvegicus [7] = assay: Reversion of toxic effect (1 ng/kg) by naloxone given 20 mins (after the compound) at a dose of 5 mg/kg; no improvement in survival observed; assay type: organism-based; set-up: dose 5 mg/kg; conditions: in vivo
Rattus norvegicus [8] = assay: Reversion of toxic effect (1 ng/kg) by naloxone given 15 mins (before the compound) at a dose of 5 mg/kg; no improvement in survival observed; assay type: ADME, organism-based; set-up: dose 5 mg/kg; conditions: in vivo, 0.25 h
Rattus norvegicus [9] = assay: Effect on rats after 30 mins of 1 mg/kg administration; death observed; assay type: ADME, organism-based; set-up: dose 1 mg/kg; conditions: in vivo, 0.5 h
Mus musculus [10] = assay: Effect after 1 ng/kg i.p. administration was measured by mice tail flick test; no analgesia observed; assay type: functional, organism-based
Rattus norvegicus [11] = assay: Reversion of toxic effect (1 ng/kg) by naloxone given 15 mins (after the compound) at a dose of 1 mg/kg; no improvement in survival observed; assay type: organism-based; set-up: dose 1 mg/kg; conditions: in vivo, 0.25 h
Rattus norvegicus [12] = assay: Effect on rats after 30 mins of 0.05 mg/kg administration; death observed; assay type: ADME, organism-based; set-up: dose 0.05 mg/kg; conditions: in vivo, 0.5 h
Rattus norvegicus [13] = assay: Effect on rats after 30 mins of 0.5 mg/kg administration; death observed; assay type: ADME, organism-based; set-up: dose 0.5 mg/kg; conditions: in vivo, 0.5 h
Rattus norvegicus [14] = assay: Reversion of toxic effect (1 ng/kg) by naloxone given 30 mins (after the compound) at a dose of 1 mg/kg; no improvement in survival observed; assay type: ADME, organism-based; set-up: dose 1 mg/kg; conditions: in vivo, 0.5 h
Rattus norvegicus [15] = assay: Effect on rats after 30 mins of 1 ng/kg administration; death observed; assay type: ADME, organism-based; conditions: in vivo, 1e-06 mg/kg, 0.5 h
Rattus norvegicus [16] = assay: Reversion of toxic effect (1 ng/kg) by naloxone given 15 mins (before the compound) at a dose of 1 mg/kg; no improvement in survival observed; assay type: organism-based; set-up: dose 1 mg/kg; conditions: in vivo, 0.25 h
Rattus norvegicus [17] = assay: Reversion of toxic effect (1 ng/kg) by naloxone given 10 mins (after the compound) at a dose of 5 mg/kg; no improvement in survival observed; assay type: ADME, organism-based; set-up: dose 5 mg/kg; conditions: in vivo
Rattus norvegicus [18] = assay: Reversion of toxic effect (1 ng/kg) by naloxone given 15 mins (after the compound) at a dose of 5 mg/kg; no improvement in survival observed; assay type: ADME, organism-based; set-up: dose 5 mg/kg; conditions: in vivo, 0.25 h
Rattus norvegicus [19] = assay: Reversion of toxic effect (1 ng/kg) by naloxone given 20 mins (before the compound) at a dose of 1 mg/kg; no improvement in survival observed; assay type: organism-based; set-up: dose 1 mg/kg; conditions: in vivo
Mus musculus [20] = assay: Effect after 1 ng/kg i.p. administration was measured by mice paw pressure test; no analgesia observed; assay type: functional, organism-based
Rattus norvegicus [21] = assay: Reversion of toxic effect (1 ng/kg) by naloxone given 15 mins (before the compound) at a dose of 10 mg/kg; no improvement in survival observed; assay type: organism-based; set-up: dose 10 mg/kg; conditions: in vivo, 0.25 h
Rattus norvegicus [22] = assay: Reversion of toxic effect (1 ng/kg) by naloxone given 10 mins (before the compound) at a dose of 5 mg/kg; no improvement in survival observed; assay type: ADME, organism-based; set-up: dose 5 mg/kg; conditions: in vivo
Rattus norvegicus [23] = assay: Effect on rats after 30 mins of 0.005 mg/kg administration; death observed; assay type: ADME, organism-based; set-up: dose 0.005 mg/kg; conditions: in vivo, 0.5 h
Rattus norvegicus [24] = assay: Reversion of toxic effect (1 ng/kg) by naloxone given 10 mins (after the compound) at a dose of 10 mg/kg; no improvement in survival observed; assay type: ADME, organism-based; set-up: dose 10 mg/kg; conditions: in vivo
Rattus norvegicus [25] = assay: Reversion of toxic effect (1 ng/kg) by naloxone given 20 mins (after the compound) at a dose of 10 mg/kg; no improvement in survival observed; assay type: ADME, organism-based; set-up: dose 10 mg/kg; conditions: in vivo
Rattus norvegicus [26] = assay: Reversion of toxic effect (1 ng/kg) by naloxone given 10 mins (before the compound) at a dose of 10 mg/kg; no improvement in survival observed; assay type: ADME, organism-based; set-up: dose 10 mg/kg; conditions: in vivo
Rattus norvegicus [27] = assay: Reversion of toxic effect (1 ng/kg) by naloxone given 10 mins (before the compound) at a dose of 1 mg/kg; no improvement in survival observed; assay type: organism-based; set-up: dose 1 mg/kg; conditions: in vivo
Rattus norvegicus [28] = assay: Reversion of toxic effect (1 ng/kg) by naloxone given 20 mins (before the compound) at a dose of 5 mg/kg; no improvement in survival observed; assay type: ADME, organism-based; set-up: dose 5 mg/kg; conditions: in vivo
Rattus norvegicus [29] = assay: Reversion of toxic effect (1 ng/kg) by naloxone given 30 mins (after the compound) at a dose of 10 mg/kg; no improvement in survival observed; assay type: organism-based; set-up: dose 10 mg/kg; conditions: in vivo, 0.5 h
Rattus norvegicus [30] = assay: Reversion of toxic effect (1 ng/kg) by naloxone given 20 mins (before the compound) at a dose of 10 mg/kg; no improvement in survival observed; assay type: ADME, organism-based; set-up: dose 10 mg/kg; conditions: in vivo
Rattus norvegicus [31] = assay: Reversion of toxic effect (1 ng/kg) by naloxone given 10 mins (after the compound) at a dose of 1 mg/kg; no improvement in survival observed; assay type: organism-based; set-up: dose 1 mg/kg; conditions: in vivo
Rattus norvegicus [32] = assay: Reversion of toxic effect (1 ng/kg) by naloxone given 15 mins (after the compound) at a dose of 10 mg/kg; no improvement in survival observed; assay type: ADME, organism-based; set-up: dose 10 mg/kg; conditions: in vivo, 0.25 h
Rattus norvegicus [33] = assay: Effect on rats after 30 mins of 5 mg/kg administration; death observed; assay type: ADME, organism-based; set-up: dose 5 mg/kg; conditions: in vivo, 0.5 h
Rattus norvegicus [34] = assay: Analgesic effect on rats after 30 mins of 5 mg/kg administration; value ranges from 60-70%; assay type: functional
Rattus norvegicus [35] = assay: Opioid antagonist activity (5 mg/kg, peripherally) was determined by measuring the analgesia produced by morphine given 10 mins (after the compound) at a dose of 5 mg/kg; no effect; assay type: functional, organism-based; set-up: dose 5 mg/kg
Rattus norvegicus [36] = assay: Opioid antagonist activity (30 mg/kg, peripherally) was determined by measuring the analgesia produced by morphine given 10 mins (after the compound) at a dose of 5 mg/kg; no effect; assay type: functional, organism-based; set-up: dose 5 mg/kg
Rattus norvegicus [37] = assay: Opioid antagonist activity (1 mg/kg, peripherally) was determined by measuring the analgesia produced by morphine given 20 mins (after the compound) at a dose of 5 mg/kg; no effect; assay type: functional, organism-based; set-up: dose 5 mg/kg
Rattus norvegicus [38] = assay: Opioid antagonist activity (1 mg/kg, peripherally) was determined by measuring the analgesia produced by morphine given 10 mins (after the compound) at a dose of 5 mg/kg; no effect; assay type: functional, organism-based; set-up: dose 5 mg/kg
Rattus norvegicus [39] = assay: Effect after 5 mg/kg i.p. administration was measured by rat paw pressure test; no analgesia observed; assay type: functional, organism-based; set-up: dose 5 mg/kg
Rattus norvegicus [40] = assay: Effect after 1 mg/kg i.p. administration was measured by rat tail flick test; no analgesia observed; assay type: functional, organism-based; set-up: dose 1 mg/kg
Rattus norvegicus [41] = assay: Inhibition of analgesia by (5 mg/kg) administered 10 min after morphine (5 mg/kg); inhibited; assay type: functional, organism-based
Rattus norvegicus [42] = assay: Effect after 10 mg/kg i.p. administration was measured by rat paw pressure test; no analgesia observed; assay type: functional, organism-based; set-up: dose 10 mg/kg
Rattus norvegicus [43] = assay: Effect after 5 mg/kg i.p. administration was measured by rat tail flick test; no analgesia observed; assay type: functional, organism-based; set-up: dose 5 mg/kg
Rattus norvegicus [44] = assay: Effect after 1 mg/kg i.p. administration was measured by rat paw pressure test; no analgesia observed; assay type: functional, organism-based; set-up: dose 1 mg/kg
Rattus norvegicus [45] = assay: Effect after 10 mg/kg i.p. administration was measured by rat tail flick test; no analgesia observed; assay type: functional, organism-based; set-up: dose 10 mg/kg

Structure (SMILES): CN1CC[C@]23c4c5ccc(O[C@@H]6O[C@H](C(=O)O)[C@@H](O)[C@H](O)[C@H]6O)c4O[C@H]2[C@@H](O)C=C[C@H]3[C@H]1C5 (stereo in doubt; form 2)
- Activity (Rattus norvegicus [1]): inactive
- Activity (Rattus norvegicus [2]): inactive
- Activity (Rattus norvegicus [3]): inactive

Structure (SMILES): CCCCCCCCNC(=O)C1OC(Oc2ccc3c4c2O[C@H]2[C@@H](O)C=C[C@H]5[C@@H](C3)N(C)CC[C@@]452)C(O)C(O)C1O (stereo not given in full)
- Effect (Rattus norvegicus [4]): Death
- Activity (Rattus norvegicus [5]): no improvement in survival
- Activity (Rattus norvegicus [6]): no improvement in survival
- Activity (Rattus norvegicus [7]): no improvement in survival
- Activity (Rattus norvegicus [8]): no improvement in survival
- Effect (Rattus norvegicus [9]): Death
- Effect (Mus musculus [10]): Death
- Activity (Rattus norvegicus [11]): no improvement in survival
- Effect (Rattus norvegicus [12]): Death
- Effect (Rattus norvegicus [13]): Death
- Activity (Rattus norvegicus [14]): no improvement in survival
- Effect (Rattus norvegicus [15]): Death
- Activity (Rattus norvegicus [16]): no improvement in survival
- Activity (Rattus norvegicus [17]): no improvement in survival
- Activity (Rattus norvegicus [18]): no improvement in survival
- Activity (Rattus norvegicus [19]): no improvement in survival
- Effect (Mus musculus [20]): Death
- Activity (Rattus norvegicus [21]): no improvement in survival
- Activity (Rattus norvegicus [22]): no improvement in survival
- Effect (Rattus norvegicus [23]): Death
- Activity (Rattus norvegicus [24]): no improvement in survival
- Activity (Rattus norvegicus [25]): no improvement in survival
- Activity (Rattus norvegicus [26]): no improvement in survival
- Activity (Rattus norvegicus [27]): no improvement in survival
- Activity (Rattus norvegicus [28]): no improvement in survival
- Activity (Rattus norvegicus [29]): no improvement in survival
- Activity (Rattus norvegicus [30]): no improvement in survival
- Activity (Rattus norvegicus [31]): no improvement in survival
- Activity (Rattus norvegicus [32]): no improvement in survival
- Effect (Rattus norvegicus [33]): Death

Structure (SMILES): CN1CC[C@]23c4c5ccc(O)c4O[C@H]2[C@@H](O)C=C[C@H]3[C@H]1C5 [MORPHINE]
- Effect (Rattus norvegicus [34]): 70%

Structure (SMILES): CN1CC[C@]23c4c5ccc(O[C@@H]6O[C@H](C(=O)O)[C@@H](O)[C@H](O)[C@H]6O)c4O[C@H]2[C@@H](O)C=C[C@H]3[C@H]1C5 (stereo in doubt; form 1)
- Activity (Rattus norvegicus [35]): inactive
- Activity (Rattus norvegicus [36]): inactive
- Activity (Rattus norvegicus [37]): inactive
- Activity (Rattus norvegicus [1]): inactive
- Activity (Rattus norvegicus [2]): inactive
- Activity (Rattus norvegicus [3]): inactive

Structure (SMILES): C=CCN1CC[C@]23c4c5ccc(O)c4O[C@H]2C(=O)CC[C@@]3(O)[C@H]1C5
- Activity (Rattus norvegicus [35]): inactive
- Activity (Rattus norvegicus [36]): inactive
- Activity (Rattus norvegicus [38]): inactive

Structure (SMILES): CN1CC[C@]23c4c5ccc(OC6OC(C(N)=O)C(O)C(O)C6O)c4O[C@H]2[C@@H](O)C=C[C@H]3[C@H]1C5 (stereo not given in full)
- Effect (Rattus norvegicus [39]): no analgesia observed
- Effect (Rattus norvegicus [40]): no analgesia observed
- Activity (Rattus norvegicus [41]): inhibited
- Effect (Rattus norvegicus [42]): no analgesia observed
- Effect (Rattus norvegicus [43]): no analgesia observed
- Effect (Rattus norvegicus [44]): no analgesia observed
- Effect (Rattus norvegicus [45]): no analgesia observed
